Data set [1] is described as follows: Extended single-dose toxicity study (GLP, microdose approach). It counts as in vivo, mice. The settings on record: both sexes, C57BL/6NCrl, mouse, in vivo, iv, 5 mg/kg; single i.v. dose, 14 days observation, mice; read-out: no adverse effect level (NOAEL). On the procedure: (§1) The precursor-induced toxicity was evaluated using the non-radiolabeled precursor in line with the IAEA and EMA guidelines. The non-clinical safety study was performed using the microdose approach I described in the ICH guideline M3 (R2). The study was designed as an extended single-dose toxicity study in one rodent species and performed under GLP conditions. NODAGA-LM3 toxicity was evaluated after intravenous administration on day 1 of the study, followed by an observation period of 14 days. 60 (30 males and 30 females) C57BL/6NCrl mice were divided into one dose group and one control group. The test item was administered once by i.v, administration into the tail vein.
(§2) In each of the two groups, 20 male and 20 female main animals were euthanized the day after dosing, whereas 10 male and 10 female recovery animals were kept for an observation period of 14 days after dosing to detect possible delayed occurrence or persistence of, or recovery from toxic effects. Three extra mice per sex were included as replacement animals. The dose group animals were injected with a 5 mg/kg vector in a 5 mL/kg dose volume. The control group underwent injection of the vehicle alone (5 mL/kg). The animals were examined twice daily for toxicity and morbidity/mortality signs. All animals were sacrificed for necropsy. Blood was taken before necropsy for analysis of hematologic and clinical biochemistry parameters. Organs were collected, weighted, and preserved in neutral buffered formaldehyde (4%) for histopathological examination. […] No effects on body weight gain or food consumption were noted. […] Therefore, these differences were considered to be unrelated to the test substance. […] All these changes were transitory and considered non-adverse.

Data set [2] concerns C57BL/6NCrl mice. The description is as above. It counts as in vivo. As to the method:
as §1, §2

Data set [3] can be described thus: PET/CT imaging after [^61Cu]CuCl2 injection. It counts as in vivo.
Data set [4] is described as follows: Specificity (blocking) study with excess DOTA-LM3. The settings on record: athymic nude Foxn1^nu, mouse, total radioactivity.
Protocol: (§4) Unless otherwise specified, the in vivo studies were performed on athymic nude Foxn1^nu 4-6 weeks-old mice. Animals were injected in the shoulder with HEK-SST2 cells (10^7 cells/200 μL) suspended in PBS. The in vivo experiments were performed when tumors reached a volume between 100-500 mm. At the intervention, all mice were between 7 and 11 weeks old.
(§5) The specificity study was performed parallel to pharmacokinetics studies. For this reason, NODAGA-LM3 was radiolabeled with ^64Cu.
(§6) The specificity of [^64Cu]Cu-NODAGA-LM3 for SSTR2-expressing tissues was evaluated in HEK-SST2 xenograft mice through a blocking study. The mice were administered with 0.15 MBq of [^64Cu]Cu-NODAGA-LM3 co-injected with a 2000-fold excess of DOTA-LM3 as a blocking agent. The mice were sacrificed 4 hours post-injection, and the organs were collected. weighed, and counted in a gamma counter.
Data set [5] has as its system HEK-SST2 xenograft mice. Put plainly: Specificity (blocking) study with excess DOTA-LM3. The note with it: inferred from low, stable liver accumulation.
Protocol: as §4, §5, §6
Data set [6] addresses T1, SSTR3 (Homo sapiens, UniProt P32745).
T1 construct: expressed in transfected cells
In words: Binding affinity (IC50) to SSTR subtypes, displacement of [Leu,D-Trp,^125I-Tyr]-somatostatin-28. The note with it: membrane pellet sections of SSTR3-expressing cells. On the procedure:
(§3) The binding affinity of Cu-NODAGA-LM3 was determined by measuring the IC50 by labelling the precursor with natural copper (^natCu). The IC50 value is the concentration in which 50% of the specific binding of a reference radioligand to the tested molecule is inhibited. The universal somatostatin radioligand [Leu,D-Trp,^125I-Tyr]-somatostatin-28 was used as a reference radioligand. The assay was performed on […] cryostat sections of membrane pellets prepared from SSTR1-, SSTR2-, SSTR3-, SSTR4-, and SSTR5-expressing cells incubated with increasing concentrations of ^natCu-NODAGA-LM3. IC50 values for each SSTR subtype were calculated by mathematically extracting the concentration of the tested molecule, causing 50% displacing of the specific bounded [Leu,D-Trp,^125I-Tyr]-somatostatin-28.

The target in data set [7] is T2, SSTR2 (Homo sapiens, UniProt P30874).
T2 construct: expressed in transfected cells
The description is as above. The settings on record: membrane pellet sections of SSTR2-expressing cells. As to the method:
as §3

The target in data set [8] is T3, SSTR1 (Homo sapiens, UniProt P30872).
T3 construct: expressed in transfected cells
The description is as above. The note with it: membrane pellet sections of SSTR1-expressing cells. On the procedure: as §3

Data set [9] deals with T4, SSTR4 (Homo sapiens, UniProt P31391).
T4 construct: expressed in transfected cells
The data set is described as above. The settings on record: membrane pellet sections of SSTR4-expressing cells. As to the method:
as §3

Data set [10] addresses T5, SSTR5 (Homo sapiens, UniProt P35346).
T5 construct: expressed in transfected cells
Described as above. The note with it: membrane pellet sections of SSTR5-expressing cells. As to the method:
as §3

Results on four compounds are retold here after patent US20260151517A1, “SOMATOSTATIN RECEPTOR-TARGETING RADIOPHARMACEUTICALS AND USES THEREOF” (Nuclidium AG, priority 2024, published 2026).

Where a SMILES comes first, the peptide text is derived from it. Bridges are numbered along the chain shown (N, C = ends). [ ]: non-standard residue; d: D form. The star is where a group is joined. X2 = O=C(O)CN1CCN(CC(=O)O)CCN([C@H](CCC(=O)*)C(=O)O)CC1; dPhe(4-NHCONH2) = NC(=O)Nc1ccc(C[C@@H](N)C(=O)O)cc1; Phe(4-Cl) = N[C@@H](Cc1ccc(Cl)cc1)C(=O)O

T5 sequence (P35346 whole entry): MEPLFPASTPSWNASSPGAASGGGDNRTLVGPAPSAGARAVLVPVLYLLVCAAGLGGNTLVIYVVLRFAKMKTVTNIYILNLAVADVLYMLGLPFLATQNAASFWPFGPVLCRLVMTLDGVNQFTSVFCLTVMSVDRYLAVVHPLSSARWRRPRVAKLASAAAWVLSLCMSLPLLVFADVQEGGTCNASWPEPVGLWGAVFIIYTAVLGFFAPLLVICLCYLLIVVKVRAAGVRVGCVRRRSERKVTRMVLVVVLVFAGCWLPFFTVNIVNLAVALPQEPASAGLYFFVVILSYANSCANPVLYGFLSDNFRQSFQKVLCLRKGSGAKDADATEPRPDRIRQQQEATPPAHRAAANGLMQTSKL
T3 sequence (P30872 whole entry): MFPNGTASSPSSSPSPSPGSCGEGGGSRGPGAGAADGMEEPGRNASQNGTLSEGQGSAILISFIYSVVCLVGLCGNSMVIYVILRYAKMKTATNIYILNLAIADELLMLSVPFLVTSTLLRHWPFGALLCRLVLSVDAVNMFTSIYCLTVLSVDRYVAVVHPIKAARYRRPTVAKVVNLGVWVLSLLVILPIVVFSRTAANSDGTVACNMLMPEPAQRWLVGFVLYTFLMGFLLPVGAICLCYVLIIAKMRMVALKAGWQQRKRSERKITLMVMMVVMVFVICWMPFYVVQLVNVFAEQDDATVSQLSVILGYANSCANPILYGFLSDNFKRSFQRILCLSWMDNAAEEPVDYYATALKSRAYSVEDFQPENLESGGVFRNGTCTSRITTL
T2 sequence (P30874 whole entry): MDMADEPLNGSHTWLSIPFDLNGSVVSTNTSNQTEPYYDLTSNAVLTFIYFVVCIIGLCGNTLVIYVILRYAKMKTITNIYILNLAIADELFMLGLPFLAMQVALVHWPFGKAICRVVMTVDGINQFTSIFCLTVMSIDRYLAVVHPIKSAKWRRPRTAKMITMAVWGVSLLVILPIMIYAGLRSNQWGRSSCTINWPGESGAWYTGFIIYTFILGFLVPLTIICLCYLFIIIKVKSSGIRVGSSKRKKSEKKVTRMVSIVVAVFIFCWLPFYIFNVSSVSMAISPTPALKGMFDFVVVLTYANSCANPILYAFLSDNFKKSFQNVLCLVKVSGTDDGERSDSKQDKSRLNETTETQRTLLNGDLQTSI
T4 sequence (P31391 whole entry): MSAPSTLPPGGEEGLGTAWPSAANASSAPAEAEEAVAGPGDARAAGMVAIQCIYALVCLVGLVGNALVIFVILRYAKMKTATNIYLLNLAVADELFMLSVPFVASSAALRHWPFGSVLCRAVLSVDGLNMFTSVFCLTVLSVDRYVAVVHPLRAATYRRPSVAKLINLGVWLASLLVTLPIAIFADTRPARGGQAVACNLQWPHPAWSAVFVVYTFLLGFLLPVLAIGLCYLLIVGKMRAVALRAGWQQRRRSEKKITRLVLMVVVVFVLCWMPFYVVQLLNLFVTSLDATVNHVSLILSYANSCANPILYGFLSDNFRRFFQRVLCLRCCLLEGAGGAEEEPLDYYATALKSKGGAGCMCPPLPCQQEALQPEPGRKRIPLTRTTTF
T1 sequence (P32745 whole entry): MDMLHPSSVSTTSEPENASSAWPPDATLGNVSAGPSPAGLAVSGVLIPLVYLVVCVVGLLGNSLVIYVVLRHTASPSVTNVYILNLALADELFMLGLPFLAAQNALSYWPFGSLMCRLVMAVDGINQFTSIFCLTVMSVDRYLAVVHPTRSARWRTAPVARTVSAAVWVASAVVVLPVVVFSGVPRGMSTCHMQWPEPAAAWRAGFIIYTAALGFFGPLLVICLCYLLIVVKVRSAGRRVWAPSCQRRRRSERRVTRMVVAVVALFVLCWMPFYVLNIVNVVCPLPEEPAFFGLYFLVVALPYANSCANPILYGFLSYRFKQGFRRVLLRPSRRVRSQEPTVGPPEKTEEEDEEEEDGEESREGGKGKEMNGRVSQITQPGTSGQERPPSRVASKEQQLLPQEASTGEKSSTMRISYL

Consider `C[C@@H](O)[C@@H]1NC(=O)[C@H](CCCCN)NC(=O)[C@@H](Cc2ccc(NC(N)=O)cc2)NC(=O)[C@H](Cc2ccc(O)cc2)NC(=O)[C@H](NC(=O)[C@H](Cc2ccc(Cl)cc2)NC(=O)CC[C@H](C(=O)O)N2CCN(CC(=O)O)CCN(CC(=O)O)CC2)CSSC[C@@H](C(=O)N[C@H](Cc2ccc(O)cc2)C(N)=O)NC1=O` [NODAGA-LM3, 2,2′-(7-((R)-4-(((S)-1-(((4R,7S,10S,13R,16S,19S)-4-(((R)-1-amino-3-(4-hydroxyphenyl)-1-oxopropan-2yl)carbamoyl)-10-(4-aminobutyl)-16-(4-hydroxybenzyl)-7-((R)-1-hydroxyethyl)-6,9,12,15,18-pentaoxo-13-(4-ureidobenzyl)-1,2-dithia-5,8,11,14,17-pentaazacycloicosan-19-yl)amino)-3-(4-chlorophenyl)-1-oxopropan-2-yl)amino)-1-carboxy-4-oxobutyl)-1,4,7-triazonane-1,4-diyl)diacetic acid] (X2-[Phe(4-Cl)][dC]Y[dPhe(4-NHCONH2)]KTC[dY]-NH2; disulfide 2-7), for which, in data set [1], the NOAEL (in general, the highest tested level that showed no adverse finding) at 14 days came to 5 mg/kg. In addition, in data set [2] (5 mg/kg i.v., 14 days observation), the delayed toxicity entry is “no indication of delayed toxicity”. For the same compound, in data set [2] (5 mg/kg i.v., mice), the “adverse systemic or local effects” value is recorded as “did not cause any adverse systemic or local effects”, the “body weight gain or food consumption” value was “No effects”, the clinical tolerability entry is “clinically well-tolerated” and the mortality entry is “no treatment-related mortality”. Moreover, the “macroscopic or microscopic findings” value in data set [2] (5 mg/kg i.v., necropsy and histopathology) is recorded as “No macroscopic or microscopic findings that could be attributed to treatment”. Also, the “hematology, white cell count” value in data set [2] (5 mg/kg i.v., transitory, considered non-adverse) was “increased white cell count in male mice”. Also, the “safety ratio vs intended maximum patient dose 0.8 μg/kg” value in [2] (considering the dose conversion factor) is recorded as “higher than 1,000 times”.
With `[Cl][61Cu][Cl]` [[^61Cu]CuCl2], the “excretion route of free isotopes” value in [3] was “excreted mainly through the liver”.
Take `C[C@@H](O)[C@@H]1NC(=O)[C@H](CCCCN)NC(=O)[C@@H](Cc2ccc(NC(N)=O)cc2)NC(=O)[C@H](Cc2ccc(O)cc2)NC(=O)[C@H](NC(=O)[C@H](Cc2ccc(Cl)cc2)NC(=O)CC[C@H](C(=O)O)N2CCN(CC(=O)O)CCN(CC(=O)O)CC2)CSSC[C@@H](C(=O)N[C@H](Cc2ccc(O)cc2)C(N)=O)NC1=O` [[^64Cu]Cu-NODAGA-LM3, metal not drawn] (X2-[Phe(4-Cl)][dC]Y[dPhe(4-NHCONH2)]KTC[dY]-NH2; disulfide 2-7): the tissue uptake (usually the percentage of the injected dose found per gram of tissue) at 4 h in data set [4] (bone, 0.15 MBq, Uptake Bone, 4 hours post-injection, non-blocking) amounted to 0.39 ± 0.07 %ID/g; in data set [4] (bone, with DOTA-LM3, 2000-fold excess, co-injected as blocking agent, Uptake Bone, 4 hours blocking, co-injected 2000-fold excess of DOTA-LM3) it was 0.01 ± 0.01 %ID/g; in [4] (pancreas, 0.15 MBq, Uptake Pancreas, 4 hours post-injection, non-blocking) it was 0.55 ± 0.1 %ID/g; in data set [4] (pancreas, with DOTA-LM3, 2000-fold excess, co-injected as blocking agent, Uptake Pancreas, 4 hours blocking, co-injected 2000-fold excess of DOTA-LM3), 0.12 ± 0.03 %ID/g; in data set [4] (stomach, 0.15 MBq, Uptake Stomach, 4 hours post-injection, non-blocking) it was 1.31 ± 0.55 %ID/g; in data set [4] (stomach, with DOTA-LM3, 2000-fold excess, co-injected as blocking agent, Uptake Stomach, 4 hours blocking, co-injected 2000-fold excess of DOTA-LM3) it was 0.43 ± 0.14 %ID/g. Also, the tissue uptake at 4 h in [4] (tumor, 0.15 MBq, Uptake Tumor, 4 hours post-injection, non-blocking) stood at 37.9 ± 3.43 %ID/g; in data set [4] (tumor, with DOTA-LM3, 2000-fold excess, co-injected as blocking agent, Uptake Tumor, 4 hours blocking, co-injected 2000-fold excess of DOTA-LM3) it was 0.52 ± 0.18 %ID/g. In addition, the in vivo stability result in data set [5] is “generally stable in vivo, with limited transchelation phenomena”.
For `C[C@@H](O)[C@@H]1NC(=O)[C@H](CCCCN)NC(=O)[C@@H](Cc2ccc(NC(N)=O)cc2)NC(=O)[C@H](Cc2ccc(O)cc2)NC(=O)[C@H](NC(=O)[C@H](Cc2ccc(Cl)cc2)NC(=O)CC[C@H](C(=O)O)N2CCN(CC(=O)O)CCN(CC(=O)O)CC2)CSSC[C@@H](C(=O)N[C@H](Cc2ccc(O)cc2)C(N)=O)NC1=O` [^natCu-NODAGA-LM3, metal not drawn] (X2-[Phe(4-Cl)][dC]Y[dPhe(4-NHCONH2)]KTC[dY]-NH2; disulfide 2-7), the IC50 (usually the concentration at which inhibition is half-maximal) in data set [6] is at least 1000 nM; in data set [7], 6.7 ± 1.5 nM; in data set [8] it was at least 1000 nM; in data set [9], at least 1000 nM; in data set [10], at least 1000 nM.
